Experimental data taken from patent US4068070A, “α-Cyanoamine compounds and a process for producing the same” (Fuji Chemical Industry Co., Ltd., priority 1974, dated 1978).

How the values were obtained:
Type in all cases: in vivo, mongrel adult dogs
[1] = test system: arterial mean blood pressure; assay: Effects on arterial mean blood pressure
Outline: (§1)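 Adult mongrel dogs of both sexes were anesthetized with pentobarbital and thoracotomized. Test agents, suspended or dissolved in 0.2% CMC, pH 6 HCl solution or saline, were injected intravenously into the brachial vein. Hemodynamic and coronary sinus parameters were then recorded.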

[2] = test system: coronary sinus oxygen tension; assay: Effects on coronary sinus oxygen tension
Outline: as §1

[3] = test system: aortic blood flow; assay: Effects on aortic blood flow
Outline: as §1

[4] = test system: heart rate; assay: Effects on heart rate
Outline: as §1

[5] = test system: coronary sinus out flow; assay: Effects on coronary sinus out flow
Outline: as §1

COc1ccc(C(C#N)N2CCN(CC(=O)N3CCCC3)CC2)cc1OC (centres unmarked) [Compound C]
Changes (%) of basal values, arterial mean blood pressure ([1]; 2.0 mg/kg i.v., 1 min): +0.8%
Changes (%) of basal values, arterial mean blood pressure ([1]; 2.0 mg/kg i.v., 5 min): 0%
Changes (%) of basal values, arterial mean blood pressure ([1]; 2.0 mg/kg i.v., 10 min): 0%
Changes (%) of basal values, arterial mean blood pressure ([1]; 2.0 mg/kg i.v., 20 min): 0%
Changes (%) of basal values, arterial mean blood pressure ([1]; 2.0 mg/kg i.v., 30 min): 0%
Changes (%) of basal values, arterial mean blood pressure ([1]; 2.0 mg/kg i.v., 40 min): 0%
Changes (%) of basal values, arterial mean blood pressure ([1]; 2.0 mg/kg i.v., imm.): -4.2%
Changes (%) of basal values, arterial mean blood pressure ([1]; 6.0 mg/kg i.v., 1 min): -3.9%
Changes (%) of basal values, arterial mean blood pressure ([1]; 6.0 mg/kg i.v., 5 min): -1.6%
Changes (%) of basal values, arterial mean blood pressure ([1]; 6.0 mg/kg i.v., 10 min): -0.7%
Changes (%) of basal values, arterial mean blood pressure ([1]; 6.0 mg/kg i.v., 20 min): -3.6%
Changes (%) of basal values, arterial mean blood pressure ([1]; 6.0 mg/kg i.v., 30 min): -2.5%
Changes (%) of basal values, arterial mean blood pressure ([1]; 6.0 mg/kg i.v., 40 min): -1.3%
Changes (%) of basal values, arterial mean blood pressure ([1]; 6.0 mg/kg i.v., imm.): -12.1%
Changes (%) of basal values, arterial mean blood pressure ([1]; 20.0 mg/kg i.v., 1 min): -17.1%
Changes (%) of basal values, arterial mean blood pressure ([1]; 20.0 mg/kg i.v., 5 min): -18.8%
Changes (%) of basal values, arterial mean blood pressure ([1]; 20.0 mg/kg i.v., 10 min): -22.2%
Changes (%) of basal values, arterial mean blood pressure ([1]; 20.0 mg/kg i.v., 20 min): -27.2%
Changes (%) of basal values, arterial mean blood pressure ([1]; 20.0 mg/kg i.v., 30 min): -28.0%
Changes (%) of basal values, arterial mean blood pressure ([1]; 20.0 mg/kg i.v., 40 min): -26.1%
Changes (%) of basal values, arterial mean blood pressure ([1]; 20.0 mg/kg i.v., imm.): -29.0%
Effects on arterial mean blood pressure (in words) ([1]; i.v., anesthetized dogs): hypotensive effects being proportioned to their doses which were of long duration
Changes(%) of basal values, coronary sinus oxygen tension ([2]; 2.0 mg/kg i.v., 1 min): +5.4%
Changes(%) of basal values, coronary sinus oxygen tension ([2]; 2.0 mg/kg i.v., 5 min): +2.8%
Changes(%) of basal values, coronary sinus oxygen tension ([2]; 2.0 mg/kg i.v., 10 min): +2.0%
Changes(%) of basal values, coronary sinus oxygen tension ([2]; 2.0 mg/kg i.v., 20 min): +1.1%
Changes(%) of basal values, coronary sinus oxygen tension ([2]; 2.0 mg/kg i.v., 30 min): 0%
Changes(%) of basal values, coronary sinus oxygen tension ([2]; 2.0 mg/kg i.v., 40 min): 0%
Changes(%) of basal values, coronary sinus oxygen tension ([2]; 2.0 mg/kg i.v., imm.): +12.1%
Changes(%) of basal values, coronary sinus oxygen tension ([2]; 6.0 mg/kg i.v., 1 min): +29.2%
Changes(%) of basal values, coronary sinus oxygen tension ([2]; 6.0 mg/kg i.v., 5 min): +22.3%
Changes(%) of basal values, coronary sinus oxygen tension ([2]; 6.0 mg/kg i.v., 10 min): +19.8%
Changes(%) of basal values, coronary sinus oxygen tension ([2]; 6.0 mg/kg i.v., 20 min): +15.0%
Changes(%) of basal values, coronary sinus oxygen tension ([2]; 6.0 mg/kg i.v., 30 min): +14.3%
Changes(%) of basal values, coronary sinus oxygen tension ([2]; 6.0 mg/kg i.v., 40 min): +12.0%
Changes(%) of basal values, coronary sinus oxygen tension ([2]; 6.0 mg/kg i.v., imm.): +36.9%
Changes(%) of basal values, coronary sinus oxygen tension ([2]; 20.0 mg/kg i.v., 1 min): +96.2%
Changes(%) of basal values, coronary sinus oxygen tension ([2]; 20.0 mg/kg i.v., 5 min): +86.7%
Changes(%) of basal values, coronary sinus oxygen tension ([2]; 20.0 mg/kg i.v., 10 min): +70.4%
Changes(%) of basal values, coronary sinus oxygen tension ([2]; 20.0 mg/kg i.v., 20 min): +63.7%
Changes(%) of basal values, coronary sinus oxygen tension ([2]; 20.0 mg/kg i.v., 30 min): +60.9%
Changes(%) of basal values, coronary sinus oxygen tension ([2]; 20.0 mg/kg i.v., 40 min): +51.5%
Changes(%) of basal values, coronary sinus oxygen tension ([2]; 20.0 mg/kg i.v., imm.): +79.1%
Effects on coronary sinus oxygen tension (in words) ([2]; i.v., anesthetized dogs): a significant increase in coronary sinus oxygen tension, effect of which was of long duration
Changes (%) of basal values, aortic blood flow ([3]; 2.0 mg/kg i.v., 1 min): +2.3%
Changes (%) of basal values, aortic blood flow ([3]; 2.0 mg/kg i.v., 5 min): +0.7%
Changes (%) of basal values, aortic blood flow ([3]; 2.0 mg/kg i.v., 10 min): -1.5%
Changes (%) of basal values, aortic blood flow ([3]; 2.0 mg/kg i.v., 20 min): -0.3%
Changes (%) of basal values, aortic blood flow ([3]; 2.0 mg/kg i.v., 30 min): -0.1%
Changes (%) of basal values, aortic blood flow ([3]; 2.0 mg/kg i.v., 40 min): 0%
Changes (%) of basal values, aortic blood flow ([3]; 2.0 mg/kg i.v., imm.): +1.1%
Changes (%) of basal values, aortic blood flow ([3]; 6.0 mg/kg i.v., 1 min): +3.4%
Changes (%) of basal values, aortic blood flow ([3]; 6.0 mg/kg i.v., 5 min): +1.1%
Changes (%) of basal values, aortic blood flow ([3]; 6.0 mg/kg i.v., 10 min): 0%
Changes (%) of basal values, aortic blood flow ([3]; 6.0 mg/kg i.v., 20 min): -1.0%
Changes (%) of basal values, aortic blood flow ([3]; 6.0 mg/kg i.v., 30 min): -2.0%
Changes (%) of basal values, aortic blood flow ([3]; 6.0 mg/kg i.v., 40 min): -1.1%
Changes (%) of basal values, aortic blood flow ([3]; 6.0 mg/kg i.v., imm.): +8.5%
Changes (%) of basal values, aortic blood flow ([3]; 20.0 mg/kg i.v., 1 min): +6.2%
Changes (%) of basal values, aortic blood flow ([3]; 20.0 mg/kg i.v., 5 min): +4.8%
Changes (%) of basal values, aortic blood flow ([3]; 20.0 mg/kg i.v., 10 min): +1.3%
Changes (%) of basal values, aortic blood flow ([3]; 20.0 mg/kg i.v., 20 min): -7.1%
Changes (%) of basal values, aortic blood flow ([3]; 20.0 mg/kg i.v., 30 min): -11.9%
Changes (%) of basal values, aortic blood flow ([3]; 20.0 mg/kg i.v., 40 min): -8.3%
Changes (%) of basal values, aortic blood flow ([3]; 20.0 mg/kg i.v., imm.): +15.8%
Effects on aortic blood flow (in words) ([3]; i.v., anesthetized dogs): an increase in blood flow immediately after administration, followed by a decrease in blood flow
Changes(%) of basal values, heart rate ([4]; 2.0 mg/kg i.v., 1 min): +1.1%
Changes(%) of basal values, heart rate ([4]; 2.0 mg/kg i.v., 5 min): +0.3%
Changes(%) of basal values, heart rate ([4]; 2.0 mg/kg i.v., 10 min): -0.2%
Changes(%) of basal values, heart rate ([4]; 2.0 mg/kg i.v., 20 min): 0%
Changes(%) of basal values, heart rate ([4]; 2.0 mg/kg i.v., 30 min): 0%
Changes(%) of basal values, heart rate ([4]; 2.0 mg/kg i.v., 40 min): 0%
Changes(%) of basal values, heart rate ([4]; 2.0 mg/kg i.v., imm.): -2.8%
Changes(%) of basal values, heart rate ([4]; 6.0 mg/kg i.v., 1 min): +5.1%
Changes(%) of basal values, heart rate ([4]; 6.0 mg/kg i.v., 5 min): +1.3%
Changes(%) of basal values, heart rate ([4]; 6.0 mg/kg i.v., 10 min): -0.3%
Changes(%) of basal values, heart rate ([4]; 6.0 mg/kg i.v., 20 min): -1.0%
Changes(%) of basal values, heart rate ([4]; 6.0 mg/kg i.v., 30 min): 0%
Changes(%) of basal values, heart rate ([4]; 6.0 mg/kg i.v., 40 min): 0%
Changes(%) of basal values, heart rate ([4]; 6.0 mg/kg i.v., imm.): -5.3%
Changes(%) of basal values, heart rate ([4]; 20.0 mg/kg i.v., 1 min): +0.8%
Changes(%) of basal values, heart rate ([4]; 20.0 mg/kg i.v., 5 min): +1.6%
Changes(%) of basal values, heart rate ([4]; 20.0 mg/kg i.v., 10 min): -1.0%
Changes(%) of basal values, heart rate ([4]; 20.0 mg/kg i.v., 20 min): -1.4%
Changes(%) of basal values, heart rate ([4]; 20.0 mg/kg i.v., 30 min): -28%
Changes(%) of basal values, heart rate ([4]; 20.0 mg/kg i.v., 40 min): -2.0%
Changes(%) of basal values, heart rate ([4]; 20.0 mg/kg i.v., imm.): -25.6%
Effects on heart rate (in words) ([4]; i.v., anesthetized dogs): a slight negative chronotropic effect
Changes(%) of basal values, coronary sinus out flow ([5]; 2.0 mg/kg i.v., 1 min): +4.7%
Changes(%) of basal values, coronary sinus out flow ([5]; 2.0 mg/kg i.v., 5 min): +4.9%
Changes(%) of basal values, coronary sinus out flow ([5]; 2.0 mg/kg i.v., 10 min): +3.2%
Changes(%) of basal values, coronary sinus out flow ([5]; 2.0 mg/kg i.v., 20 min): +2.1%
Changes(%) of basal values, coronary sinus out flow ([5]; 2.0 mg/kg i.v., 30 min): +1.6%
Changes(%) of basal values, coronary sinus out flow ([5]; 2.0 mg/kg i.v., 40 min): +1.1%
Changes(%) of basal values, coronary sinus out flow ([5]; 2.0 mg/kg i.v., imm.): +17.8%
Changes(%) of basal values, coronary sinus out flow ([5]; 6.0 mg/kg i.v., 1 min): +50.7%
Changes(%) of basal values, coronary sinus out flow ([5]; 6.0 mg/kg i.v., 5 min): +28.6%
Changes(%) of basal values, coronary sinus out flow ([5]; 6.0 mg/kg i.v., 10 min): +19.4%
Changes(%) of basal values, coronary sinus out flow ([5]; 6.0 mg/kg i.v., 20 min): +18.2%
Changes(%) of basal values, coronary sinus out flow ([5]; 6.0 mg/kg i.v., 30 min): +14.3%
Changes(%) of basal values, coronary sinus out flow ([5]; 6.0 mg/kg i.v., 40 min): +7.6%
Changes(%) of basal values, coronary sinus out flow ([5]; 6.0 mg/kg i.v., imm.): +58.2%
Changes(%) of basal values, coronary sinus out flow ([5]; 20.0 mg/kg i.v., 1 min): +103.2%
Changes(%) of basal values, coronary sinus out flow ([5]; 20.0 mg/kg i.v., 5 min): +92.1%
Changes(%) of basal values, coronary sinus out flow ([5]; 20.0 mg/kg i.v., 10 min): +80.8%
Changes(%) of basal values, coronary sinus out flow ([5]; 20.0 mg/kg i.v., 20 min): +56.2%
Changes(%) of basal values, coronary sinus out flow ([5]; 20.0 mg/kg i.v., 30 min): +36.2%
Changes(%) of basal values, coronary sinus out flow ([5]; 20.0 mg/kg i.v., 40 min): +30.0%
Changes(%) of basal values, coronary sinus out flow ([5]; 20.0 mg/kg i.v., imm.): +101.9%
Effects on coronary sinus out flow (in words) ([5]; i.v., anesthetized dogs): a marked increasing effect on coronary sinus out flow, which was proportioned to doses thereof and of long duration
